Source: US11299462B2, “Crystal form of oxopicolinamide derivative and preparation method therefor” (JIANGSU HENGRUI MEDICINE CO., LTD., priority 2018, dated 2022)

Assays:
[1] = Study of the stability of the crystal forms (HPLC purity and XRPD crystal form, Day 7); type: physicochemical; settings: for Purity %: HPLC purity, Day 7, spread flat in the air; for Crystal form: XRPD, Day 7; for chemical stability: conclusion from Table 7; for HPLC purity change / XRPD peaks / crystal form stability / crystallinity: 25° C.-60% RH and 40° C.-75% RH
Procedure: Example 13. Study of the Stability of the Crystal Forms
The samples of crystal forms A, B, C, D and F were spread flat in the air to test sample stability under conditions of 4° C., 25° C.-60% relative humidity (RH) and 40° C.-75% relative humidity (RH). The sampling was carried out on Day 7. The HPLC purity and crystal form stability of the samples were studied.
The XRPD spectrums of the samples of crystal forms A, B, C, D and F under conditions of 25° C.-60% RH and 40° C.-75% RH are shown in FIGS. 7 to 16.
It can be seen that the stability of crystal forms B and F is better than that of crystal forms A, C and D.

human blood = assay: In vitro anticoagulant effect on human blood (APTT detection in plasma); type: biochemical
Procedure: Test Example 2: Determination of In Vitro Anticoagulant Effect of the Compound of the Present Invention on Human Blood
1. Experimental Materials
Plasma: human blood was collected in blood collection tubes free of anticoagulant, and then 3.8% sodium citrate (volume ratio 1:9) was added. The tubes were centrifuged at 2500 rpm for 10 minutes at room temperature, and then the plasma was collected and stored at −80° C.;
Reagents: APTT reagent (Activated partial thromboplastin time assay kit, SIEMENS, No. B4218-1), calcium chloride solution;
Instrument: coagulation instrument (SYSMEX, CA-500).
The separated plasma was melted at room temperature and mixed well. 10000 μM of test compound dissolved in 100% DMSO was diluted to 3000, 300, 200, 150, 75, 30, 10, 3, 0.3 μM with 100% DMSO, and the blank was 100% DMSO. The reagent, plasma, and compounds were placed in corresponding positions in the coagulation instrument, and APTT detection of the compound was carried out.
Curve fitting was carried out by Prism, and CT2 (i.e., the concentration of the compound corresponding to 2 times the APTT of the blank control) was calculated. CT2=2.0.

Row | Structure (SMILES) | XRPD ([1]; 40° C.-75% RH) | Purity % ([1]; 4° C.) | Purity % ([1]; 25° C. 60% RH) | Purity % ([1]; 40° C. 75% RH) | Crystal form ([1]; 4° C.) | Crystal form ([1]; 25° C. 60% RH) | Crystal form ([1]; 40° C. 75% RH) | chemical stability [1] | HPLC purity change ([1]; 4° C.) | XRPD peaks ([1]; 4° C.) | crystal form stability ([1]; 4° C.) | XRPD peaks [1] | crystallinity [1] | CT2 (concentration of the compound corresponding to 2 times the APTT of the blank control) (human blood)
1 | COc1cn([C@@H](Cc2ccccc2)C(=O)Nc2ccc(C(=O)O)cc2)c(=O)cc1-c1cc(Cl)ccc1C(C)=O [Crystal form C, (S)-4-(2-(4-(2-Acetyl-5-chlorophenyl)-5-methoxy-2-oxopyridin-1(2H)-yl)-3-phenylpropanamido)benzoic acid] | has also changed | 99.28% | 99.29% | 99.31% | Same | Same | Different | good |  |  |  |  |  | 
2 | COc1cn([C@@H](Cc2ccccc2)C(=O)Nc2ccc(C(=O)O)cc2)c(=O)cc1-c1cc(Cl)ccc1C(C)=O [Crystal form F, (S)-4-(2-(4-(2-Acetyl-5-chlorophenyl)-5-methoxy-2-oxopyridin-1(2H)-yl)-3-phenylpropanamido)benzoic acid] |  | 99.17% | 99.33% | 99.21% | Same | Same | Same | good | changed slightly | have not changed | stable |  |  | 
3 | COc1cn([C@@H](Cc2ccccc2)C(=O)Nc2ccc(C(=O)O)cc2)c(=O)cc1-c1cc(Cl)ccc1C(C)=O [Crystal form D, (S)-4-(2-(4-(2-acetyl-5-chlorophenyl)-5-methoxy-2-oxopyridin-1(2H)-yl)-3-phenylpropanamido)benzoic acid] |  | 98.4% | 98.15% | 98.33% | Same | Different | Different | good |  |  |  | have changed with the loss of some peak characters | has decreased | 
4 | COc1cn([C@@H](Cc2ccccc2)C(=O)Nc2ccc(C(=O)O)cc2)c(=O)cc1-c1cc(Cl)ccc1C(C)=O [compound of formula (I), (S)-4-(2-(4-(2-acetyl-5-chlorophenyl)-5-methoxy-2-oxopyridin-1(2H)-yl)-3-phenylpropanamido) benzoic acid] |  |  |  |  |  |  |  |  |  |  |  |  |  | 2.0
5 | COc1cn([C@@H](Cc2ccccc2)C(=O)Nc2ccc(C(=O)O)cc2)c(=O)cc1-c1cc(Cl)ccc1C(C)=O [Crystal form B, (S)-4-(2-(4-(2-Acetyl-5-chlorophenyl)-5-methoxy-2-oxopyridin-1(2H)-yl)-3-phenylpropanamido)benzoic acid] |  | 99.13% | 99.14% | 99.13% | Same | Same | Same | good | changed slightly | have not changed | stable |  |  | 
6 | COc1cn([C@@H](Cc2ccccc2)C(=O)Nc2ccc(C(=O)O)cc2)c(=O)cc1-c1cc(Cl)ccc1C(C)=O [Crystal form A, (S)-4-(2-(4-(2-Acetyl-5-chlorophenyl)-5-methoxy-2-oxopyridin-1(2H)-yl)-3-phenylpropanamido)benzoic acid] |  | 98.94% | 98.99% | 99.01% | Same | Different | Different | good |  |  |  | have changed with the loss of some peak characters | has decreased | 
